Holding throughout (type): in vivo, C57BL/6J mice
Experiment [1] deals with high-fat diet-induced obese mice. Description: Body weight, organ weight and adipose tissue weight of high-fat diet-induced obese mice. To be noted: for Adipose times weight: Epididymal fat / Adipose times weight: Interscapular BAT / Adipose times weight: Interscapular WAT / Adipose times weight: Mesentery fat / Adipose times weight: Perinephric fat / Adipose times weight: Retroperitoneum fat / Adipose times weight: Subcutaneous fat / Adipose times weight: Total WAT / Adipose times weight: Visceral fat / BWG (weight gain) / FER (food efficiency ratio = Weight gain/diet intake) / FinalBodyweight / Organ weights: Kidney / Organ weights: Liver / Organ weights: Muscle: HFD+5% w/w in diet, 16 weeks. How it is done:
(§1) First, 4-week-old male C57BL/6J mice (60 total) were purchased from Jackson Laboratory. The animals were acclimated to the vivarium in a thermo-hygrostat (20-23° C., 45-65%) under a 12 h light/dark cycle and fed a pelletized commercial non-purified diet for 1 week after arrival. The mice were then randomly divided into 6 groups (n=10) and fed the respective experimental diets for 16 weeks: normal diet group (ND, American Institute of Nutrition (AIN)-76 semi-synthetic diet), high-fat diet group (HFD, 20% fat+1% cholesterol based on AIN-76 diet), PSI group (HFD+5% D-psicose, w/w, Sigma Chemical Company), ERY group (HFD+5% erythritol, w/w, Sigma Chemical Company), GLU group (HFD+5% D-glucose, w/w, Sigma Chemical Company), and FRU group (HFD+5% D-fructose, w/w, Sigma Chemical Company). All high-fat diet-fed groups were allowed to ingest the same calories by pair feeding based on the PSI group. The mice had ad libitum access to distilled water during the experimental period. Their feed intakes and body weights were measured daily and biweekly, respectively. The organ weights and the adipose tissue weights of the mice were measured after sacrificing the animals.

Experiment [2] has the same test system. Description: Plasma leptin, resistin, adiponectin levels and L:A ratio. To be noted: FIG. 3, HFD+5% w/w in diet, 16 weeks. How it is done:
as §1, with “animals. Plasma leptin, resistin, and adiponectin levels were measured using Bio-Rad multiplex kits (Hercules, Calif., USA). All samples were assayed in duplicate and analyzed using a Luminex 200 labmap system (Luminex, Austin, Tex., USA). Data analysis was performed using Bio-Plex Manager software version 4.1.1 (Bio-Rad, Hercules, Calif., USA).” for “animals.”

Experiment [3] concerns FAS (fatty acid synthase, 14101). Description: Hepatic mRNA expression, real-time quantitative PCR: FAS. The settings on record: FIG. 6, liver, HFD+5% w/w in diet, 16 weeks. Here is the method: as §1
(§2) Samples were prepared and analyzed as previously described. Specifically, total RNA was synthesized into cDNA using a QuantiTect Reverse Transcription kit (QIAGEN Gmb1h, Hilden, Germany). RNA expression was quantified with real-time quantitative PCR using a QuantiTect SYBR Green PCR kit (QIAGEN Gmb1h, Hilden, Germany). Primers were designed to detect FAS (fatty acid synthase, 14101), ACC1 (Acetyl-CoA carboxylase 1, 107476), CPT1α (Carnitine palmitoyltransferase 1α, 12894), and CPT2 (Carnitine palmitoyltransferase 2, 12896). GAPDH was used as an internal transcription marker. The reaction was performed a total of 40 cycles (each consisting of 15 sec at 94° C., 30 sec at 58° C., 30 sec at 72° C., and 15 sec at 65° C.). Fluorescence signals were monitored every cycle and the resulting threshold cycles (Ct) were analyzed. mRNA expression in each experimental group was quantified using a CFX96 Real time system (Bio-rad, USA).

For experiment [4], the system named is FATP4 (fatty acid transporter 4, 26569). Description: Small intestine mRNA expression, real-time quantitative PCR: FATP4. The settings on record: FIG. 8, HFD+5% w/w in diet, 16 weeks. How it is done: as §1
as §2, with “CD36 (cluster of differentiation 36, 12491), ApoB48 (apolipoprotein B 48, 238055), FATP4” for “FAS”, “transporter 4, 26569), ABCG5 (ATP-binding cassette sub-family G member5, 27409),” for “synthase, 14101), ACC1 (Acetyl-CoA carboxylase 1, 107476), CPT1α (Carnitine palmitoyltransferase 1α, 12894),”, “ABCG8 (ATP-binding cassette sub-family G member8, 67470).” for “CPT2 (Carnitine palmitoyltransferase 2, 12896).”

The test system of experiment [5] is ApoB48 (apolipoprotein B 48, 238055). In words: Small intestine mRNA expression, real-time quantitative PCR: ApoB48. The settings on record: FIG. 8, HFD+5% w/w in diet, 16 weeks. Here is the method: as §1
as §2, with “CD36 (cluster of differentiation 36, 12491), ApoB48 (apolipoprotein B 48, 238055), FATP4” for “FAS”, “transporter 4, 26569), ABCG5 (ATP-binding cassette sub-family G member5, 27409),” for “synthase, 14101), ACC1 (Acetyl-CoA carboxylase 1, 107476), CPT1α (Carnitine palmitoyltransferase 1α, 12894),”, “ABCG8 (ATP-binding cassette sub-family G member8, 67470).” for “CPT2 (Carnitine palmitoyltransferase 2, 12896).”

From patent US20180243325A1, “METHOD FOR INHIBITING ABSORPTION OF AND/OR PROMOTING EXCRETION OF LIPIDS USING D-PSICOSE” (CJ CHEILJEDANG CORPORATION, priority 2015, published 2018) come the findings set out here.

For the compound `OC[C@@H](O)[C@@H](O)CO` [ERY, erythritol], in experiment [1], the “Adipose times weight: Epididymal fat” value is reported as 7.92 g/100 g Body weight, the “Adipose times weight: Interscapular BAT” value was 0.57 g/100 g Body weight, the “Adipose times weight: Interscapular WAT” value was 4.56 g/100 g Body weight and the “Adipose times weight: Mesentery fat” value stood at 2.43 g/100 g Body weight. In experiment [1], the “Adipose times weight: Perinephric fat” value is 0.92 g/100 g Body weight, the “Adipose times weight: Retroperitoneum fat” value amounted to 2.21 g/100 g Body weight, the “Adipose times weight: Subcutaneous fat” value was 4.88 g/100 g Body weight and the “Adipose times weight: Total WAT” value is 22.93 g/100 g Body weight. Also, in experiment [1], the “Adipose times weight: Visceral fat” value amounted to 18.36 g/100 g Body weight, the “BWG (weight gain)” value is on record as 1.32 g/16 weeks, the “FER (food efficiency ratio = Weight gain/diet intake)” value was found to be 0.059 and the FinalBodyweight came to 40.22 g. In experiment [1], the “Organ weights: Kidney” value was 0.77 g/100 g Bodyweight, the “Organ weights: Liver” value stood at 5.37 g/100 g Bodyweight and the “Organ weights: Muscle” value is on record as 0.77 g/100 g Bodyweight. Besides, in experiment [2], the “leptin:adiponectin ratio (L:A ratio)” value was “increased significantly compared to those in the ND group”, the plasma leptin level result is reported as “increased significantly compared to those in the ND group” and the plasma resistin level entry is on record as “increased significantly compared to those in the ND group”. Moreover, the “hepatic mRNA expression level of FAS” value in experiment [3] is on record as “significantly lower than those in the ND group”. Besides, in experiment [4], the “mRNA expression level of FATP4 in the small intestine” value (from here on “mRNA expression level of FATP4”) was “significantly higher”. Also, the “mRNA expression level of ApoB48 in the small intestine” value (“mRNA expression level of ApoB48” for short) in experiment [5] is recorded as “significantly higher”.

`O=C(CO)[C@@H](O)[C@H](O)[C@H](O)CO` [FRU, D-fructose]: in experiment [1], the “Adipose times weight: Epididymal fat” value turned out to be 8.50 g/100 g Body weight, the “Adipose times weight: Interscapular BAT” value was found to be 0.73 g/100 g Body weight, the “Adipose times weight: Interscapular WAT” value is recorded as 4.43 g/100 g Body weight and the “Adipose times weight: Mesentery fat” value turned out to be 2.93 g/100 g Body weight. Also, in experiment [1], the “Adipose times weight: Perinephric fat” value amounted to 1.17 g/100 g Body weight, the “Adipose times weight: Retroperitoneum fat” value is 2.19 g/100 g Body weight, the “Adipose times weight: Subcutaneous fat” value is 3.78 g/100 g Body weight and the “Adipose times weight: Total WAT” value is recorded as 22.65 g/100 g Body weight. In addition, in experiment [1], the “Adipose times weight: Visceral fat” value was 18.22 g/100 g Body weight, the “BWG (weight gain)” value worked out at 1.39 g/16 weeks, the “FER (food efficiency ratio = Weight gain/diet intake)” value came out at 0.065 and the FinalBodyweight is given as 41.26 g. In experiment [1], the “Organ weights: Kidney” value came to 0.84 g/100 g Bodyweight, the “Organ weights: Liver” value was found to be 5.68 g/100 g Bodyweight and the “Organ weights: Muscle” value was found to be 0.83 g/100 g Bodyweight. In addition, in experiment [2], the “leptin:adiponectin ratio (L:A ratio)” value is on record as “increased significantly compared to those in the ND group”, the plasma leptin level result is “increased significantly compared to those in the ND group” and the plasma resistin level result was “increased significantly compared to those in the ND group”. In addition, in experiment [3], the “hepatic mRNA expression level of FAS” value is “significantly lower than those in the ND group”. Besides, in experiment [4], the “mRNA expression level of FATP4” value is “significantly higher”. In addition, the “mRNA expression level of ApoB48” value in experiment [5] is reported as “significantly higher”.

As for `O=C[C@H](O)[C@@H](O)[C@H](O)[C@H](O)CO` [GLU, D-glucose], in experiment [1], the “Adipose times weight: Epididymal fat” value is on record as 8.42 g/100 g Body weight, the “Adipose times weight: Interscapular BAT” value amounted to 0.71 g/100 g Body weight, the “Adipose times weight: Interscapular WAT” value stood at 4.54 g/100 g Body weight and the “Adipose times weight: Mesentery fat” value is listed as 2.62 g/100 g Body weight. For the same compound, in experiment [1], the “Adipose times weight: Perinephric fat” value worked out at 1.15 g/100 g Body weight, the “Adipose times weight: Retroperitoneum fat” value worked out at 2.01 g/100 g Body weight, the “Adipose times weight: Subcutaneous fat” value was 5.47 g/100 g Body weight and the “Adipose times weight: Total WAT” value amounted to 24.21 g/100 g Body weight. Besides, in experiment [1], the “Adipose times weight: Visceral fat” value amounted to 19.67 g/100 g Body weight, the “BWG (weight gain)” value was 1.39 g/16 weeks, the “FER (food efficiency ratio = Weight gain/diet intake)” value stood at 0.065 and the FinalBodyweight was found to be 41.77 g. In addition, in experiment [1], the “Organ weights: Kidney” value is 0.74 g/100 g Bodyweight, the “Organ weights: Liver” value stood at 5.22 g/100 g Bodyweight and the “Organ weights: Muscle” value came out at 0.82 g/100 g Bodyweight. Besides, in experiment [2], the “leptin:adiponectin ratio (L:A ratio)” value is “increased significantly compared to those in the ND group”, the plasma leptin level result is “increased significantly compared to those in the ND group” and the plasma resistin level entry is “increased significantly compared to those in the ND group”. Further, the “hepatic mRNA expression level of FAS” value in experiment [3] is listed as “significantly lower than those in the ND group”. For the same compound, the “mRNA expression level of FATP4” value in experiment [4] is “significantly higher”. Also, the “mRNA expression level of ApoB48” value in experiment [5] is on record as “significantly higher”.

For `O=C(CO)[C@H](O)[C@H](O)[C@H](O)CO` [PSI, D-psicose], in experiment [1] (FIG. 1, HFD+5% w/w in diet, measured biweekly over 16 weeks), the “increases in the body weight over time” value is “considerably inhibited from 4 weeks after diet feeding”. Also, the “BWG (weight gain)” value in experiment [1] is on record as 0.70 g/16 weeks. The results for the “Organ weights: Liver” value in experiment [1] and in experiment [1] (listed as D-psicose) were 4.35 g/100 g Bodyweight and “to levels similar to those of the ND group”, respectively. For the same compound, in experiment [2], the “leptin:adiponectin ratio (L:A ratio)” value was “reduced considerably to levels similar to those in the ND group”. The plasma leptin level entry in experiment [2] is recorded as “reduced considerably to levels similar to those in the ND group”. Moreover, the plasma resistin level entry in experiment [2] is given as “reduced considerably to levels similar to those in the ND group”. Further, the “hepatic mRNA expression level of FAS” value in experiment [3] is reported as “much significantly lower than those in the ND group”. The “mRNA expression level of FATP4” value in experiment [4] is reported as “significantly lower in the PSI group than those in other high-fat diet groups”; in experiment [4] (listed as D-psicose), “reduces mRNA expression”. Also, the figures for the “mRNA expression level of ApoB48” value in experiment [5] and in experiment [5] (listed as D-psicose) were “significantly lower in the PSI group than those in other high-fat diet groups” and “reduces mRNA expression”, respectively.
